{"source": "paper PMC11192711", "about": "“Automated radiosynthesis and preclinical evaluation of two new PSMA-617 derivatives radiolabelled via [^18F]AlF^2+ method” (EJNMMI Radiopharmacy and Chemistry, 2024)", "key": {"[1]": {"system": "LNCaP tumour-bearing NSG mice", "experiment": "PET/CT in vivo biodistribution and tumour uptake in subcutaneous LNCaP prostate cancer xenograft model", "settings": "n = 4; for Bone (SUV mean) / Brain (SUV mean) / Colon (SUV mean) / Gall bladder (SUV mean) / Heart (SUV mean) / Kidney (SUV mean) / Liver (SUV mean) / Lung (SUV mean) / Muscle (SUV mean) / Salivary gland (SUV mean) / Small instestine (SUV mean): LNCaP NSG male mice, i.v., PET/CT; for ratio between tumour and muscle (tumour SUV max/muscle SUV mean) / uptake in the tumour expressed as SUV max: LNCaP tumour, NSG mice", "protocol": "The uptake of [^18F]F-PSMA-1007 and [^18F]F-PSMA-617-NODA ([^18F]1) was compared in vivo in a xenograft model of human prostate cancer obtained using LNCaP cells which are PSMA positive, as confirmed by real time PCR-analysis (Additional file 1: S69A). LNCaP tumour-bearing NSG mice were injected i.v. with either [^18F]F-PSMA-1007 or [^18F]F-PSMA-617-NODA (~ 3.8 MBq/mouse, ~ 20 pmol for [^18F]F-PSMA-1007 and ~ 50 pmol [^18F]1). Radiotracer uptake was assessed after 10, 60 and 120 min post injection by whole-body PET/CT acquisitions.\nTotal body biodistribution of [^18F]F-PSMA-1007, [^18F]F-PSMA-617-NODA and [^18F]F-PSMA-617-RESCA was evaluated in vivo using imaging PET/CT. [^18F]F-PSMA-617-NODA uptake was compared to that of the [^18F]F-PSMA-1007 in a PSMA positive prostate tumour xenograft model (LNCaP). [^18F]F-PSMA-617-NODA and [^18F]F-PSMA-617-RESCA uptake were also evaluated using an orthotopic glioma model (Gli36ΔEGFR).\nAnimal experiments were carried out in compliance with institutional guidelines for the care and the use of experimental animals, which have been authorized by the Italian Ministry of Health (n° 378/2019-PR and 817/2021-PR). The animals were housed at constant temperature (23 °C) and relative humidity (40%) under a regular light/dark cycle with food and water available ad libitum. Seven to eight weeks old male NSG mice (Charles River Laboratories Italia s.r.l., Italy) were subcutaneously inoculated in the right flank with 5 × 10^6 of PSMA‐positive human prostate cancer cells (LNCaP) suspended in matrigel (1: 1, total volume 200 ul). The growth tumour was monitored periodically with calliper and tumour volume was calculated using the following formula: […]\nWhen the tumour volume was about 230.8 ± 60.3 mm^3 (approximately 15 days after tumour cells inoculation), 4 animals performed an in vivo biodistribution of [^18F]F-PSMA-1007 and [^18F]F-PSMA-617-NODA, on successive but non-consecutive days, using PET/CT.\nMice were injected into a tail vein with 3.8 ± 0.1 MBq of [^18F]F-PSMA-1007, 4.0 ± 0.2 MBq of [^18F]F-PSMA-617-NODA ([^18F]1) and 3.8 ± 0.1 MBq of [^18F]F-PSMA-617-RESCA ([^18F]2), respectively.\nTotal body PET/CT acquisitions were performed using PET/CT tomographs dedicated to small animals, X-ß-CUBE (Molecubes, Gent, Belgium) after 10, 60 and 120 min from tracer injection. Each acquisition lasted 30 min and mice were maintained anesthetized (4% isoflurane in induction and 2% in maintenance in air) during acquisition.\nImage quantification analysis was performed with PMOD 4.105 software (Zurich, Switzerland). Volumes of interest (VOIs) were drawn on peripheral organs (tumour, thoracic muscle, heart, liver, kidney, salivary glands, lung, small intestine, colon, bone, gall bladder) and on the healthy brain using CT images. For the glioma model, PET/CT images were co-registered to MRI images and two different VOIs were defined: (1) a control VOI covering the healthy left striatum (volume 4 mm^3) was drawn on the axial MR images, adjusted on the other imaging planes and then copied on the PET images of each mouse; (2) a second glioma-covering VOI was drawn in the tumour-affected brain hemisphere and centered on mice lesions.\nFor quantification, Standardized Uptake Value (SUV) was calculated according to the formula:\nSUV = organ concentration activity [MBq/g]/(injected activity [MBq]/animal weight [g]).\nThe data were expressed as standardized-uptake-values (SUVmean and SUVmax) and as tumour-to-muscle (T/M) and tumour-to-blood (T/B) ratio in PCa model and as tumour-to-contralateral (T/Cl) ratio in glioma model."}, "[2]": {"experiment": "Stability in human plasma (HPLC, radio-TLC, pellet/supernatant activity)", "assay_type": "in vitro ADME", "settings": "for Stability in human plasma: 37 °C, up to 4 h, HPLC and radio-TLC; for Pellet activity / Supernatant activity: ACN precipitation", "protocol": "Stability in plasma was evaluated mixing aliquots of [^18F]1 or [^18F]2 solutions (10 MBq for 2 h incubation and 20 MBq for 4 h incubation samples) with 200 µL of human serum. The mixtures were incubated at 37 °C. Aliquots were taken at 2 h and 4 h. Plasma pellet was precipitated with 200 µL acetonitrile and centrifuged (13,500 rpm, 10 min). The supernatant was removed, and the activity of the supernatant solution and pellet was measured using a dose calibrator (VIK-202 Comecer). The supernatant solution was analyzed injecting in RP-HPLC (diluted 1:5 in water) and Radio-TLC as above described."}, "[3]": {"settings": "[18F]1, 2 h incubation in plasma, total activity incubated 3.6 MBq"}, "[4]": {"settings": "[18F]1, 4 h incubation in plasma, total activity incubated 3.89 MBq"}}, "data": [{"smiles": "O=C(O)CCC(NC(=O)NC(CCCCNC(=O)C(Cc1ccc2ccccc2c1)NC(=O)C1CCC(CNC(=O)CCCN2CCN(CC(=O)O)CCN(CC(=O)O)CC2)CC1)C(=O)O)C(=O)O.[18F][Al]", "note": "[[^18F]F-PSMA-617-NODA, (((S)-5-((S)-2-((1R,4S)-4-((4-(4,7-bis(carboxymethyl)-1,4,7-triazonan-1-yl)butanamido)methyl)cyclohexane-1-carboxamido)-3-(naphthalen-2-yl)propanamido)-1-carboxypentyl)carbamoyl)-L-glutamic acid [^18F] aluminium fluoride]", "values": [{"measurement": "Bone (SUV mean)", "setting": "[1]; 10 min p.i.", "result": "0.20 ± 0.12"}, {"measurement": "Brain (SUV mean)", "setting": "[1]; 10 min p.i.", "result": "0.05 ± 0.003"}, {"measurement": "Colon (SUV mean)", "setting": "[1]; 10 min p.i.", "result": "0.30 ± 0.08"}, {"measurement": "Gall bladder (SUV mean)", "setting": "[1]; 10 min p.i.", "result": "0.27 ± 0.05"}, {"measurement": "Heart (SUV mean)", "setting": "[1]; 10 min p.i.", "result": "0.30 ± 0.03"}, {"measurement": "Kidney (SUV mean)", "setting": "[1]; 10 min p.i.", "result": "8.50 ± 1.40"}, {"measurement": "Liver (SUV mean)", "setting": "[1]; 10 min p.i.", "result": "0.22 ± 0.02"}, {"measurement": "Lung (SUV mean)", "setting": "[1]; 10 min p.i.", "result": "0.31 ± 0.04"}, {"measurement": "Muscle (SUV mean)", "setting": "[1]; 10 min p.i.", "result": "0.15 ± 0.05"}, {"measurement": "Salivary gland (SUV mean)", "setting": "[1]; 10 min p.i.", "result": "0.49 ± 0.05"}, {"measurement": "Small instestine (SUV mean)", "setting": "[1]; 10 min p.i.", "result": "0.23 ± 0.05"}, {"measurement": "Bone (SUV mean)", "setting": "[1]; 60 min p.i.", "result": "0.23 ± 0.11"}, {"measurement": "Brain (SUV mean)", "setting": "[1]; 60 min p.i.", "result": "0.03 ± 0.01"}, {"measurement": "Colon (SUV mean)", "setting": "[1]; 60 min p.i.", "result": "0.17 ± 0.02"}, {"measurement": "Gall bladder (SUV mean)", "setting": "[1]; 60 min p.i.", "result": "0.14 ± 0.07"}, {"measurement": "Heart (SUV mean)", "setting": "[1]; 60 min p.i.", "result": "0.09 ± 0.02"}, {"measurement": "Kidney (SUV mean)", "setting": "[1]; 60 min p.i.", "result": "6.39 ± 2.14"}, {"measurement": "Liver (SUV mean)", "setting": "[1]; 60 min p.i.", "result": "0.10 ± 0.02"}, {"measurement": "Lung (SUV mean)", "setting": "[1]; 60 min p.i.", "result": "0.14 ± 0.01"}, {"measurement": "Muscle (SUV mean)", "setting": "[1]; 60 min p.i.", "result": "0.04 ± 0.01"}, {"measurement": "Salivary gland (SUV mean)", "setting": "[1]; 60 min p.i.", "result": "0.18 ± 0.08"}, {"measurement": "Small instestine (SUV mean)", "setting": "[1]; 60 min p.i.", "result": "0.16 ± 0.05"}, {"measurement": "Bone (SUV mean)", "setting": "[1]; 120 min p.i.", "result": "0.25 ± 0.12"}, {"measurement": "Brain (SUV mean)", "setting": "[1]; 120 min p.i.", "result": "0.02 ± 0.01"}, {"measurement": "Colon (SUV mean)", "setting": "[1]; 120 min p.i.", "result": "0.13 ± 0.06"}, {"measurement": "Gall bladder (SUV mean)", "setting": "[1]; 120 min p.i.", "result": "0.03 ± 0.02"}, {"measurement": "Heart (SUV mean)", "setting": "[1]; 120 min p.i.", "result": "0.03 ± 0.01"}, {"measurement": "Kidney (SUV mean)", "setting": "[1]; 120 min p.i.", "result": "2.43 ± 1.24"}, {"measurement": "Liver (SUV mean)", "setting": "[1]; 120 min p.i.", "result": "0.04 ± 0.01"}, {"measurement": "Lung (SUV mean)", "setting": "[1]; 120 min p.i.", "result": "0.04 ± 0.01"}, {"measurement": "Muscle (SUV mean)", "setting": "[1]; 120 min p.i.", "result": "0.02 ± 0.01"}, {"measurement": "Salivary gland (SUV mean)", "setting": "[1]; 120 min p.i.", "result": "0.04 ± 0.02"}, {"measurement": "Small instestine (SUV mean)", "setting": "[1]; 120 min p.i.", "result": "0.06 ± 0.03"}, {"measurement": "ratio between tumour and muscle (tumour SUV max/muscle SUV mean)", "setting": "[1]; 60 min p.i.", "result": "30.29 ± 10.46"}, {"measurement": "uptake in the tumour expressed as SUV max", "setting": "[1]; 60 min p.i.", "result": "1.11 ± 0.24"}, {"measurement": "ratio between tumour and muscle (tumour SUV max/muscle SUV mean)", "setting": "[1]; 120 min p.i.", "result": "83.53 ± 48.71"}, {"measurement": "uptake in the tumour expressed as SUV max", "setting": "[1]; 120 min p.i.", "result": "0.94 ± 0.12"}, {"measurement": "Stability in human plasma", "setting": "[2]; listed as [^18F]1", "result": "stable"}, {"measurement": "Stability in human plasma", "setting": "[2]; listed as [^18F]PSMA-617-NODA", "result": "no substantial release of [^18F]AlF^2+"}, {"measurement": "Pellet activity", "setting": "[2]; [3]", "result": 0.4, "unit": "MBq"}, {"measurement": "Supernatant activity", "setting": "[2]; [3]", "result": 3.2, "unit": "MBq"}, {"measurement": "Pellet activity", "setting": "[2]; [4]", "result": 0.45, "unit": "MBq"}, {"measurement": "Supernatant activity", "setting": "[2]; [4]", "result": 3.44, "unit": "MBq"}, {"measurement": "protein uptake", "setting": "[2]; stability tests in human plasma", "result": "~ 11%"}]}]}
